Measurements taken from US8344008B2 (Janssen Pharmaceutica NV, priority 2007, dated 2013).

Molecular target: T1, recombinant human LTA4 hydrolase (rhLTA4H) (Homo sapiens, UniProt P09960)
T1 construct: made in house; host or cells: Spodoptera frugiperda (Sf-9) cells, baculovirus (pFastBac1)
T1 sequence (P09960 1-611): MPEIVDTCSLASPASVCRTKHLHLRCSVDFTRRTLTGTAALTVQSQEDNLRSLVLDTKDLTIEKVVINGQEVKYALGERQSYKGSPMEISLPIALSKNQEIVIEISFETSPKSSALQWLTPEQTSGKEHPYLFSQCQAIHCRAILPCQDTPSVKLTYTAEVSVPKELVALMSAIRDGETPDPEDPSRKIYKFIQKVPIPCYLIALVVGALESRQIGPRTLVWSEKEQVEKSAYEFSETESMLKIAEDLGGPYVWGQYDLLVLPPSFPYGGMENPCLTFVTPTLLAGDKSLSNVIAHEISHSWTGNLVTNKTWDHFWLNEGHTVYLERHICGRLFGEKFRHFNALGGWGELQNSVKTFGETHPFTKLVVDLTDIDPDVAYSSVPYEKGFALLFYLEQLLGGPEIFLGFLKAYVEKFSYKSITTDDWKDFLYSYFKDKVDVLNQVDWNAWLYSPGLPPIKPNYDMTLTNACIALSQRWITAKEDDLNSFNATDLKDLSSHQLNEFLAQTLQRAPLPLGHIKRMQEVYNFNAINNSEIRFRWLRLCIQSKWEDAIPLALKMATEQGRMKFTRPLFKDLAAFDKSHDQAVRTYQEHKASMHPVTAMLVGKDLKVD
Assay: Recombinant Human LTA4 Hydrolase Assay for LTA4 Hydrolase Inhibitor Activity
Assay type: biochemical
Conditions: average of results obtained; LTB4 quantified by enzyme-linked immunoassay
Method in brief: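 Baculovirus/Sf-9-expressed human LTA4 hydrolase (36 ng) preincubated with compound 10 min at rt in 0.1 M potassium phosphate pH 7.4, 5 mg/mL fatty-acid-free BSA. Reaction started with 9 ng LTA4 free acid, run 10 min at rt; LTB4 measured by enzyme immunoassay, IC50 from 4-parameter fit.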

SMILES	Ki [nM]
CC(=O)N[C@@H]1C[C@H]2CC[C@@H](C1)N2CCc1ccc(Oc2nc3cccc(F)c3s2)cc1 [Example 254, meso-exo-N-(8-{2-[4-(7-Fluoro-benzothiazol-2-yloxy)-phenyl]-ethyl}-8-aza-bicyclo[3.2.1]oct-3-yl)-acetamide]	115
NC(=O)N1C[C@H]2C[C@@H]1CN2CCc1ccc(Oc2nc3c(Cl)cccc3s2)cc1 [Example 252, (R,R)-5-{2-[4-(4-Chloro-benzothiazol-2-yloxy)-phenyl]-ethyl}-2,5-diaza-bicyclo[2.2.1]heptane-2-carboxylic acid amide]	108
COCC(=O)N1C[C@@H]2C[C@H]1CN2CCc1cccc(Oc2nc3ccccc3s2)c1 [Example 43]	442
NC(=O)N1C[C@@H]2C[C@H]1CN2Cc1ccc(Cc2nc3ccccc3s2)cc1 [Example 35, (S,S)-5-(4-Benzothiazol-2-ylmethyl-benzyl)-2,5-diaza-bicyclo[2.2.1]heptane-2-carboxylic acid amide]	93
Cc1ccc2nc(Oc3ccc(CCN[C@@H]4C[C@H]5CC[C@@H](C4)N5C(N)=O)cc3)sc2c1 [Example 173, meso-exo-3-{2-[4-(6-Methyl-benzothiazol-2-yloxy)-phenyl]-ethylamino}-8-aza-bicyclo[3.2.1]octane-8-carboxylic acid amide]	973
Cc1ccc2nc(Oc3ccc(CCN[C@@H]4C[C@H]5CC[C@@H](C4)N5S(C)(=O)=O)cc3)sc2c1 [Example 269, meso-exo-(8-Methanesulfonyl-8-aza-bicyclo[3.2.1]oct-3-yl)-{2-[4-(6-methyl-benxothiazol-2-yloxy)-phenyl]-ethyl}-amine]	630
CC(=O)N[C@H]1C[C@H]2CC[C@@H](C1)N2CCOc1ccc(Cc2nc3ccccc3s2)cc1 [Example 152, N-{8-[2-(4-Benzothiazol-2-ylmethyl-phenoxy)-ethyl]-8-aza-bicyclo[3.2.1]oct-3-yl}-acetamide]	75
NC(=O)N1C[C@@H]2C[C@H]1CN2CCc1cccc(Oc2nc3ccccc3s2)c1 [Example 39, (S,S)-5{2-[3-(Benzothiazol-2-yloxy)-phenyl]-ethyl}2,5-diaza-bicyclo[2.2.1]heptane-2-carboxylic acid amide]	100
Cc1ccc2nc(Oc3ccc(CCN4CC5CN(C(N)=O)CC5C4)cc3)sc2c1 (stereo not drawn) [Example 146]	78
CS(=O)(=O)N1CC2CCC(C1)N2CCOc1ccc(Oc2nc3cc(Cl)ccc3s2)cc1 [Example 256, meso-5-Chloro-2-{4-[2-(3-methanesulfonyl-3,8-diaza-bicyclo[3.2.1]oct-8-yl)-ethoxy]-phenoxy}-benzothiazole]	1710
CS(=O)(=O)N[C@H]1C[C@H]2CC[C@@H](C1)N2CCOc1ccc(Oc2nc3ccc(Cl)cc3s2)cc1 [Example 222, meso-endo-N-(8-{2-[4-(6-Chloro-benzothiazol-2-yloxy)-phenoxy]-ethyl}-8-aza-bicyclo[3.2.1]oct-3-yl)-methanesulfonamide]	130
O=C(c1ccsc1)N1CC2CN(Cc3ccc(Oc4nc5ccccc5s4)cc3)CC2C1 (stereo not drawn) [Example 109, {5-[4-(Benzothiazol-2-yloxy)-benzyl]-hexahydro-pyrrolo[3,4-c]pyrrol-2-yl}-thiophen-3-yl-methanone]	135
CC(=O)N[C@H]1C[C@H]2CC[C@@H](C1)N2CCOc1ccc(Oc2nc3ccc(C)cc3s2)cc1 [Example 271]	79
CC(=O)N1CC2CN(CCc3ccc(Oc4nc5ccc(C)cc5s4)cc3)CC2C1 (stereo not drawn) [Example 148, 1-(5-{2-[4-(6-Methyl-benzothiazol-2-yloxy)-phenyl]-ethyl}-hexahydro-pyrrolo[3,4-c]pyrrol-2-yl)-ethanone]	229
CC(=O)N1C[C@@H]2C[C@H]1CN2Cc1ccc(Oc2nc3cc(F)ccc3s2)cc1 [Example 170, (S,S)-1-{5-[4-(5-Fluoro-benzothiazol-2-yloxy)-benzyl]-2,5-diaza-bicyclo[2.2.1]hept-2-yl}-ethanone]	90
CC(=O)N[C@H]1C[C@H]2CC[C@@H](C1)N2CCc1ccc(Oc2nc3cccc(Cl)c3s2)cc1 [Example 187, meso-endo-N-(8-{2-[4-(7-Chloro-benzothiazol-2-yloxy)-phenyl]-ethyl}-8-aza-bicyclo[3.2.1]oct-3-yl)-acetamide]	975

Molecules with a lower Ki, results first:

Ki [nM]	SMILES
66	O=C(N1C[C@@H]2C[C@H]1CN2CCc1cccc(Oc2nc3ccccc3s2)c1)C1(O)CC1 [Example 18, (S,S)-(5-{2-[3-(Benzothiazol-2-yloxy)-phenyl]-ethyl}-2,5-diaza-bicyclo[2.2.1]hept-2-yl)-(1-hydroxy-cyclopropyl)-methanone]
60	NC(=O)N1C[C@@H]2C[C@H]1CN2Cc1ccc(Oc2nc3ccccc3s2)cc1F [Example 80, (S,S)-5-[4-(Benzothiazol-2-yloxy)-2-fluoro-benzyl]-2,5-diaza-bicyclo[2.2.1]heptane-2-carboxylic acid amide]
58	CC(C)(C)OC(=O)N1CC(C(=O)N2C[C@@H]3C[C@H]2CN3Cc2ccc(Oc3nc4ccccc4s3)cc2)C1 [Example 64, (S,S)-3-{5-[4-(Benzothiazol-2-yloxy)-benzyl]-2,5-diaza-bicyclo[2.2.1]heptane-2-carbonyl}-azetidine-1-carboxylic acid tert-butyl ester]
57	CS(=O)(=O)N1C[C@@H]2C[C@H]1CN2CCc1ccc(Oc2nc3ccccc3s2)cc1 [Example 47, (S,S)-2-{4-[2-(5-Methanesulfonyl-2,5-diaza-bicyclo[2.2.1]hept-2-yl)-ethyl]-phenoxy}-benzothiazole]
47	COC(=O)CCCN1CC2CN(Cc3ccc(Oc4nc5ccccc5s4)cc3)CC2C1 (stereo not drawn) [Example 156, 4-{5-[4-(Benzothiazol-2-yloxy)-benzyl]-hexahydro-pyrrolo[3,4-c]pyrrol-2-yl}-butyric acid methyl ester]
36	CC(=O)N1CCC2CN(Cc3ccc(Oc4nc5ccccc5s4)cc3)CC21 (stereo not drawn) [Example 87, 1-{5-[4-(Benzothiazol-2-yloxy)-benzyl]-hexahydro-pyrrolo[3,4-b]pyrrol-1-yl}-ethanone]
35	CS(=O)(=O)N1CC2CN(Cc3ccc(Oc4nc5ccccc5s4)cc3)CC2C1 (stereo not drawn) [Example 129, 2-[4-(5-Methanesulfonyl-hexahydro-pyrrolo[3,4-c]pyrrol-2-ylmethyl)-phenoxy]-benzothiazole]
34	COCC(=O)N1C[C@@H]2C[C@H]1CN2CCc1ccc(Oc2nc3ccccc3s2)cc1 [Example 42]
30	CS(=O)(=O)N1[C@@H]2CC[C@H]1C[C@H](NCCOc1ccc(Oc3nc4c(F)cccc4s3)cc1)C2 [Example 217, meso-exo-{2-[4-(4-Fluoro-benzothiazol-2-yloxy)-phenoxy]-ethyl}-(8-methanesulfonyl-8-aza-bicyclo[3.2.1]oct-3-yl)-amine]
26	NC(=O)N[C@@H]1C[C@H]2CC[C@@H](C1)N2Cc1ccc(Oc2nc3cc(F)ccc3s2)cc1 [Example 260, meso-exo-{8-[4-(5-Fluoro-benzothiazol-2-yloxy)-benzyl]-8-aza-bicylclo[3.2.1]oct-3-yl}-urea]
21	CC(=O)N1CC2CCN(Cc3ccc(Oc4nc5ccccc5s4)cc3)CC2C1 (stereo not drawn) [Example 90, 1-{5-[4-(Benzothiazol-2-yloxy)-benzyl]-octahydro-pyrrolo[3,4-c]pyridin-2-yl}-ethanone]
20	CC(=O)N1C[C@H]2C[C@@H]1CN2CCOc1ccc(Oc2nc3cccc(F)c3s2)cc1 [Example 218, (R,R)-1-(5-{2-[4-(7-Fluoro-benzothiazol-2-yloxy)-phenoxy]-ethyl}-2,5-diaza-bicyclo[2.2.1]hept-2-yl)-ethanone]
20	Cc1noc(C)c1NC(=O)N1CC2CN(Cc3ccc(Oc4nc5ccccc5s4)cc3)CC2C1 (stereo not drawn) [Example 133, 5-[4-(Benzothiazol-2-yloxy)-benzyl]-hexahydro-pyrrolo[3,4-c]pyrrole-2-carboxylic acid (3,5-dimethyl-isoxazol-4-yl)-amide]
15	NC(=O)N[C@H]1C[C@H]2CC[C@@H](C1)N2CCOc1ccc(Oc2nc3cc(F)ccc3s2)cc1 [Example 219, meso-endo-(8-{2-[4-(5-Fluoro-benzothiazol-2-yloxy)-phenoxy]-ethyl}-8-aza-bicyclo[3.2.1]oct-3-yl)-urea]
13	O=C(N1C[C@@H]2C[C@H]1CN2Cc1ccc(Oc2nc3ccccc3s2)cc1)C1(O)CC1 [Example 11, (S,S)-{5-[4-(Benzothiazol-2-yloxy)-benzyl]-2,5-diaza-bicyclo[2.2.1]hept-2-yl}-(1-hydroxy-cyclopropyl)-methanone]
10	O=C(CO)N1C[C@@H]2C[C@H]1CN2Cc1ccc(Oc2nc3ccccc3s2)cc1 [Example 10, (S,S)-1-{5-[4-(Benzothiazol-2-yloxy)-benzyl]-2,5-diaza-bicyclo[2.2.1]hept-2-yl}-2-hydroxy-ethanone]
7	CC(=O)N1C[C@H]2C[C@@H]1CN2Cc1ccc(Oc2nc3ccccc3s2)cc1 [Example 3, (R,R)-1-{5-[4-(Benzothiazol-2-yloxy)-benzyl]-2,5-diaza-bicyclo[2.2.1]hept-2-yl}-ethanone]
